Data from US6730503B1 (Roche Vitamins Inc., priority 1996, dated 2004).
Read-outs that look alike come from different tables or passages of the source.

How the values were obtained:
[1] = system: Gluconobacter oxydans DSM No. 4025 AADH chimera Enzyme sB (Enzyme A residues 1-95, Enzyme B residues 96-180, Enzyme A residues 180-556; parents SEQ ID NO: …); assay: Kinetic properties of chimera Enzyme sB; type: biochemical; details: read-out: Km (sorbitol)
From the text: (§1) To further improve the chimeras, Enzyme A/B21, Enzyme A/B22, Enzyme A/B25 and Enzyme A/B31 in the view point of the preferable codon usage, the C-terminal two thirds consisting of Enzyme B residues were replaced with the C-terminal two thirds consisting of Enzyme A residues. Enzyme A/B21, Enzyme A/B22, Enzyme A/B25 and Enzyme A/B31 genes were used for constructing new chimera genes of Enzyme sA21 (Enzyme A ammo acid residue Nos. 1-128, Enzyme B amino acid residue Nos. 129-180 and Enzyme A amino acid residue Nos. 180-556), Enzyme sA22 (Enzyme A amino acid residue Nos. 1-125, Enzyme B amino acid residue Nos. 126-180 and Enzyme A amino acid residue Nos. 180-556), Enzyme sA2 (Enzyme A amino acid residue Nos. 1-135, Enzyme B amino acid residue Nos. 136-180 and Enzyme A amino acid residue Nos. 180-556) and Enzyme sB (Enzyme A amino acid residue Nos. 1-95, Enzyme B amino acid residue Nos. 96-180 and Enzyme A amino acid residue Nos. 180-556) (FIG. 4). […]

[2] = system: Gluconobacter oxydans DSM No. 4025 AADH chimera Enzyme sA2 (Enzyme A residues 1-135, Enzyme B residues 136-180, Enzyme A residues 180-556; parents SEQ ID NO: …); assay: Kinetic properties of chimera Enzyme sA2; type: biochemical; details: read-out: Km (glucose)
From the text: as §1

Enzyme A″ = assay: Effect of metals and inhibitors on enzyme activity, PMS-DCIP assay; type: biochemical, G. oxydans DSM No. 4025
Enzyme A = assay: as above; type: biochemical, G. oxydans DSM No. 4025
Enzyme A′ = assay: as above; type: biochemical, G. oxydans DSM No. 4025
Enzyme B = assay: as above; type: biochemical, G. oxydans DSM No. 4025
[3] = biological target: T1, Gluconobacter oxydans DSM No. 4025 alcohol/aldehyde dehydrogenase Enzyme B, SEQ ID NO: 8 (Ketogulonicigenium vulgare, UniProt F9Y8N6); assay: Effect of inhibitors on activity of Enzyme B (PMS-DCIP assay, substrate D-sorbitol); type: biochemical; details: 10 mM inhibitor, 30 minutes at 25° C., pH 7.5, relative to blank incubation
T1 construct: 579 aa precursor with 23 aa signal peptide; PMS-DCIP assay with D-sorbitol
T1 sequence (F9Y8N6 24-579): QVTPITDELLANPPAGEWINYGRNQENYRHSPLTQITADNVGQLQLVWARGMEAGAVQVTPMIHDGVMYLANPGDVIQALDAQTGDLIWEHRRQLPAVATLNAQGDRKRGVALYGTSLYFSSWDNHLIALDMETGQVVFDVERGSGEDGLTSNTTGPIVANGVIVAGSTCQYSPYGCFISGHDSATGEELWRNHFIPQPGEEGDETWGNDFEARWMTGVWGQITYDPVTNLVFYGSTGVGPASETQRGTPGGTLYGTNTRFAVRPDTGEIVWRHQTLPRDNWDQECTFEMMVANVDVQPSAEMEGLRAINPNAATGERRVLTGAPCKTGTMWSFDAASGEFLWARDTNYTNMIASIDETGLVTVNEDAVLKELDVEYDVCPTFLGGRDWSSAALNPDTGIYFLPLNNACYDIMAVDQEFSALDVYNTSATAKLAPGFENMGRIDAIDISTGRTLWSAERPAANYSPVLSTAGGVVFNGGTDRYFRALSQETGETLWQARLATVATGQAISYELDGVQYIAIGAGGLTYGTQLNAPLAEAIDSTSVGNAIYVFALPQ
Description: (§2) The enzymatic activity of the AADHs herein can be determined by methods known in the art, such as by photometric analysis using a spectrophotometer. In accordance with the present invention, one unit of enzyme activity was defined as the amount of enzyme which catalyzed the reduction of 1 μmole of DCIP per minute. The extinction coefficient of DCIP at pH 8.0 was taken as 15 mM^−1. […] A second cuvette, i.e., a reference cuvette, contains all the above components except the substrate. The reference cuvette is used to standardize the background absorbance resulting from a substrate-independent (endogenous) reaction.
(§3) Enzyme activities of each clone (cell free extract, soluble fraction and membrane fraction) were measured by photometric analysis. The cells of each clone were inoculated in 5 ml of MB medium in a test tube and cultivated at 30° C. for 24 hours. The resulting broth was transferred into 200 ml of fresh MB medium in 500 ml flask and the flask was shaken on the rotary flask shaker at 30° C. for 24 hours. […] Substrate-dependent decreasing rate of absorbance of DCIP at 600 nm was measured at 25° C. by using a Kontron spectrophotometer UVIKON 810.
(§4) The enzyme (about 0.05 mg/ml) in 25 mM HEPES buffer, pH 7.5, containing 5% sucrose was incubated with metal or inhibitor for 30 minutes at 25° C. […] Remaining activity is expressed as relative activity against blank incubation.

[4] = biological target: T2, Gluconobacter oxydans DSM No. 4025 alcohol/aldehyde dehydrogenase Enzyme A′, SEQ ID NO: 6 (Ketogulonicigenium vulgare, UniProt F9Y5Q6); assay: Effect of inhibitors on activity of Enzyme A′ (PMS-DCIP assay, substrate n-propanol); type: biochemical; details: 10 mM inhibitor, 30 minutes at 25° C., pH 7.5, relative to blank incubation
T2 construct: 579 aa precursor with 23 aa signal peptide; PMS-DCIP assay with n-propanol
T2 sequence (F9Y5Q6 with tags, fused parts or gaps): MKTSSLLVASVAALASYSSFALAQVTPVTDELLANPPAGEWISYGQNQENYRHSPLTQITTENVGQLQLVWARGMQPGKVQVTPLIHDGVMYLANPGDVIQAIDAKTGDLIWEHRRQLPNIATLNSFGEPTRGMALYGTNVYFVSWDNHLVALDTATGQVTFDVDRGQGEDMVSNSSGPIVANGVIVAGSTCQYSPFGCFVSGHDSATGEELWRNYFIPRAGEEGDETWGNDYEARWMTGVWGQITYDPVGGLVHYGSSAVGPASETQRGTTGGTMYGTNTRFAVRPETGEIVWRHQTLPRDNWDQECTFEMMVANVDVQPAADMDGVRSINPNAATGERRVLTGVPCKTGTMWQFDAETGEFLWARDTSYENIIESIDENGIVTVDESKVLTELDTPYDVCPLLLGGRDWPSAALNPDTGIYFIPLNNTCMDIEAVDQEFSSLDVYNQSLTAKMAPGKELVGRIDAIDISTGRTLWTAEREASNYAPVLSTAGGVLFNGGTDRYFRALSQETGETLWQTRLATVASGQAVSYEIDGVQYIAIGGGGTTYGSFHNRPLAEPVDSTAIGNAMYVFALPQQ
Description: as §2, §3, §4

[5] = biological target: T3, Gluconobacter oxydans DSM No. 4025 alcohol/aldehyde dehydrogenase Enzyme B, wild type, SEQ ID NO: 8 (Ketogulonicigenium vulgare, UniProt F9Y8N6); assay: Kinetic properties of Enzyme B; type: biochemical
T3 construct: 579 aa precursor with 23 aa signal peptide
T3 sequence (F9Y8N6 24-579): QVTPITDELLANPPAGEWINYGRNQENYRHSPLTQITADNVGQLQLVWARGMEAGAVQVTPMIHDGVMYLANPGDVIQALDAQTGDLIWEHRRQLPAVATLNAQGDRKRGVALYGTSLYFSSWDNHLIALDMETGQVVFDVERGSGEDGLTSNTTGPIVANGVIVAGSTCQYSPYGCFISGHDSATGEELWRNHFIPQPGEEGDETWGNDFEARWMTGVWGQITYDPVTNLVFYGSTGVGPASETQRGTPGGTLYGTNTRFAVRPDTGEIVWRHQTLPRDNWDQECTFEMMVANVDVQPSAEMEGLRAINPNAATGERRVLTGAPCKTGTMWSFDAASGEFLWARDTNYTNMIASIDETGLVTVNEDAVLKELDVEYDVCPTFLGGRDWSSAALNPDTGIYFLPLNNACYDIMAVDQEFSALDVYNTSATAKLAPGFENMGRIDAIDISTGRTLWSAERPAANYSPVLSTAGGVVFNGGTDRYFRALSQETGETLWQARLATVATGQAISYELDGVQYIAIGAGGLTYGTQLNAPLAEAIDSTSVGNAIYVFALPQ
From the text: Tables 11 and 12 summarizes the kinetic properties of chimera enzymes, Enzyme sA2 and Enzyme sB in comparison with Enzyme A and Enzyme B, respectively.

[6] = substrate: OCC1(O)OC[C@H](O)[C@@H](O)[C@@H]1O; assay: purified protein, by the assay type; details: other: Enzyme A
[7] = 1 mM compound, 30 minutes at 25° C., substrate L-Sorbose, relative to blank incubation
[8] = 1 mM compound, 30 minutes at 25° C., substrate n-Propanol, relative to blank incubation
[9] = 1 mM compound, 30 minutes at 25° C., substrate D-Sorbitol, relative to blank incubation
[10] = 5 mM compound, 30 minutes at 25° C., substrate L-Sorbose, relative to blank incubation
[11] = 5 mM compound, 30 minutes at 25° C., substrate n-Propanol, relative to blank incubation
[12] = 5 mM compound, 30 minutes at 25° C., substrate D-Sorbitol, relative to blank incubation
[13] = 0.5 mM compound, 30 minutes at 25° C., substrate L-Sorbose, relative to blank incubation

OC[C@@H](O)[C@@H](O)[C@H](O)[C@@H](O)CO [sorbitol, D-sorbitol]
Km [1]: 61 mM

OC[C@H]1OC(O)[C@H](O)[C@@H](O)[C@@H]1O (stereo partly drawn) [glucose]
Km [2]: 20 mM

[F-].[Na+] [NaF]
Relative remaining activity (Enzyme A″; [7]): 94.9 | Relative remaining activity (Enzyme A; [7]): 98.2 | Relative remaining activity (Enzyme A′; [8]): 97.1 | Relative remaining activity (Enzyme B; [9]): 100.8

O=C(O)CI [ICH2COONa]
Relative remaining activity (Enzyme A″; [7]): 95.3 | Relative remaining activity (Enzyme A; [7]): 97.2 | Relative remaining activity (Enzyme A′; [8]): 78.3 | Relative remaining activity (Enzyme B; [9]): 100.2

O=C(O)CN(CCOCCOCCN(CC(=O)O)CC(=O)O)CC(=O)O [EGTA]
remaining activity at 10000 µM [3]: 74% | remaining activity at 10000 µM [4]: 16.7%

[Cl][Fe][Cl] [FeCl2]
Relative remaining activity (Enzyme A″; [10]): 0.0 | Relative remaining activity (Enzyme A; [10]): 16.6 | Relative remaining activity (Enzyme A′; [11]): 0.0 | Relative remaining activity (Enzyme B; [12]): 5.9

[Cl][Cu][Cl] [CuCL2]
Relative remaining activity (Enzyme A″; [10]): 0.0 | Relative remaining activity (Enzyme A; [10]): 0.0 | Relative remaining activity (Enzyme A′; [11]): 0.0 | Relative remaining activity (Enzyme B; [12]): 0.0

[Cl-].[Cl-].[Zn+2] [ZnCl2]
Relative remaining activity (Enzyme A″; [10]): 19.2 | Relative remaining activity (Enzyme A; [10]): 1.5 | Relative remaining activity (Enzyme A′; [11]): 6.1 | Relative remaining activity (Enzyme B; [12]): 0.0

[Cl-].[Cl-].[Mg+2] [MgCl2]
Relative remaining activity (Enzyme A″; [10]): 78.8 | Relative remaining activity (Enzyme A; [10]): 96.3 | Relative remaining activity (Enzyme A′; [11]): 85.3 | Relative remaining activity (Enzyme B; [12]): 100.0

Cl.NO [Hydroxylamine-HCl]
Relative remaining activity (Enzyme A″; [13]): 97.2 | Relative remaining activity (Enzyme A; [13]): 104.6 | Relative remaining activity (Enzyme A′; 0.5 mM compound, 30 minutes at 25° C., substrate n-Propanol, relative to blank incubation): 98.8 | Relative remaining activity (Enzyme B; 0.5 mM compound, 30 minutes at 25° C., substrate D-Sorbitol, relative to blank incubation): 102.1

OCC1(O)OC[C@H](O)[C@@H](O)[C@@H]1O (stereo partly drawn) [sorbose, L-sorbose]
Ki [5]: 100 mM

[Cl][Mn][Cl] [MmCl2]
Relative remaining activity (Enzyme A″; [10]): 0.0 | Relative remaining activity (Enzyme A; [10]): 0.0 | Relative remaining activity (Enzyme A′; [11]): 45.7 | Relative remaining activity (Enzyme B; [12]): 0.0

[Cl][Fe]([Cl])[Cl] [FeCl3]
Relative remaining activity (Enzyme A″; [10]): 44.7 | Relative remaining activity (Enzyme A; [10]): 7.8 | Relative remaining activity (Enzyme A′; [11]): 0.0 | Relative remaining activity (Enzyme B; [12]): 0.0

[Ca+2].[Cl-].[Cl-] [CaCl2]
Relative remaining activity (Enzyme A″; [10]): 123.0 | Relative remaining activity (Enzyme A; [10]): 98.8 | Relative remaining activity (Enzyme A′; [11]): 95.3 | Relative remaining activity (Enzyme B; [12]): 102.9

[Cl-].[Cl-].[Co+2] [CoCl2]
Relative remaining activity (Enzyme A″): 46.9 | Relative remaining activity (Enzyme A): 16.6 | Relative remaining activity (Enzyme A′): 7.9 | Relative remaining activity (Enzyme B): 23.6

O=S(=O)([O-])[O-].[Ni+2] [NiSO4]
Relative remaining activity (Enzyme A″; [10]): 90.3 | Relative remaining activity (Enzyme A; [10]): 42.7 | Relative remaining activity (Enzyme A′; [11]): 59.7 | Relative remaining activity (Enzyme B; [12]): 79.4

B1: Gluconobacter oxydans DSM No. 4025 alcohol/aldehyde dehydrogenase Enzyme A, wild type, SEQ ID NO: 5 (Ketogulonicigenium vulgare WSH-001) (protein)
chain: QVTPVTDELLANPPAGEWISYGQNQENYRHSPLTQITTENVGQLQLVWARGMQPGKVQVTPLIHDGVMYLANPGDVIQAIDAKTGDLIWEHRRQLPNIATLNSFGEPTRGMALYGTNVYFVSWDNHLVALDTATGQVTFDVDRGQGEDMVSNSSGPIVANGVIVAGSTCQYSPFGCFVSGHDSATGEELWRNYFIPRAGEEGDETWGNDYEARWMTGAWGQITYDPVTNLVHYGSTAVGPASETQRGTPGGTLYGTNTRFAVRPDTGEIVWRHQTLPRDNWDQECTFEMMVTNVDVQPSTEMEGLQSINPNAATGERRVLTGVPCKTGTMWQFDAETGEFLWARDTNYQNMIESIDENGIVTVNEDAILKELDVEYDVCPTFLGGRDWPSAALNPDSGIYFIPLNNVCYDMMAVDQEFTSMDVYNTSNVTKLPPGKDMIGRIDAIDISTGRTLWSVERAAANYSPVLSTGGGVLFNGGTDRYFRALSQETGETLWQTRLATVASGQAISYEVDGMQYVAIAGGGVSYGSGLNSALAGERVDSTAIGNAVYVFALPQ
Km [6]: 36 mM mM
